Laboratory results as given in patent US5827821A, “Conformationally stabilized cell adhesion peptides” (The Burnham Institute, priority 1992, dated 1998).
Where no end group is shown, it is not given here. [ ]: non-standard residue; d: D form. Pen = CC(C)(S)[C@H](N)C(=O)O

Columns and labels:
[1] = tested on: attachment of normal rat kidney cells to vitronectin; test: Cell adhesion assay: inhibition of attachment of normal rat kidney cells to vitronectin; assay type: cell-based; details: vitronectin-coated wells, peptide 0 to 10.0 mM, FIG. 2
Procedure: (§1) Fibronectin and vitronectin were purified from human plasma according to the methods of Ruoslahti et al., (1982) Meth. Enz. 82:803; and Hayman et al., (1983) PNAS 80:4003, respectively, both of which are incorporated herein by reference. The adhesion of normal rat kidney cells to fibronectin and vitronectin was assayed as described in Ruoslahti et al., Meth. Enz. supra. Briefly, 0.1 ml solution of fibronectin or vitronectin at a concentration of 12 μg/ml in 0.1M PBS was placed in each well of 96-well plastic microtiter plates and left for 2 hours at room temperature. The unattached protein was removed by washing three times with PBS.
(§2) One day before the assay, a confluent culture of normal rat kidney cells was split 1:2 using standard tissue culture trypsin. The cells were washed three times with PBS, pH 7.2. […] Before the last centrifugation, a sample was taken and cell numbers and viability by trypan blue exclusion are determined. […]
(§3) The unattached cells were removed simply by removing the medium and washing the wells. […] The cells were then fixed with 3% paraformaldehyde in PBS and stained with 1% toluidine blue, paraformaldehyde in PBS, and attached cells counted. Their number was determined using a cell counter that is capable of counting cells attached to a surface (Dynatech Laboratories, Alexandria, Va.). […]

[2] = tested on: attachment of normal rat kidney cells to fibronectin; test: Cell adhesion assay: inhibition of attachment of normal rat kidney cells to fibronectin; assay type: cell-based; details: fibronectin-coated wells, peptide 0 to 10.0 mM, FIG. 2
Procedure: as §1, §2, §3

Substance: G[Pen]GRGDSPC (cysteine pairing not given here) [linear peptide]
- inhibition of attachment to vitronectin [1]: inhibited attachment of cells to both substrates at relatively similar concentrations
- inhibition of attachment to fibronectin [2]: inhibited attachment of cells to both substrates at relatively similar concentrations
